Results from patent US11612601B1, “Targeting epidermal growth factor to treat vascular calcification” (THE FLORIDA INTERNATIONAL UNIVERSITY BOARD OF TRUSTEES, priority 2022, dated 2023).

Experiments:
[1] = system: Primary human coronary artery vascular smooth muscle cells; assay: In vitro calcification of VSMCs, Alizarin Red S staining; type: cell-based; conditions: OS media, 2.5 μM, 28 days
Description: Primary human coronary artery vascular smooth muscle cells, (VSMCs, ATCC, PCS-100-021) were cultured using vascular smooth muscle cell media and growth kit (ATCC, PCS-100-042). VSMCs (passage 4-6) were harvested using 0.05% trypsin-EDTA solution (Caisson Labs, TRL04) and seeded with a density of 26,320 cells.cm^−2 and incubated for 72 hours at 37° C., 5% CO2 with controlled humidity prior to treatment. VSMCs were treated with either control media, consisting of DMEM (HyClone, SH30022.01), 10% v/v bovine calf serum (iron-supplemented, R&D Systems, S11950), and 1% v/v penicillin-streptomycin (Gibco, 15070-063), or with an osteogenic media (OS) optimized to induce calcification. OS media were supplemented with 10 mM β-glycerophosphate (Sigma, 13408-09-8), 0.1 mM L-ascorbic acid (Sigma, 113170-55-1), and 10 nM dexamethasone (Sigma, 50-02-2).
To assess the role of EGFR inhibition, tyrphostin AG1478 (Millipore Sigma, T4182) was dissolved in vehicle (DMSO:Methanol, 1:1) and added to OS media to a final concentration of 2.5 μM. An equal volume of vehicle was added to the control and OS groups. […]
To quantify the in vitro calcification, ARS stain was extracted using acetic acid (1.67 M, Fisher Chemical, A38S) on a shaker. […] Sample absorbance of 405 nm was measured using a multi-mode reader (BioTek, Synergy HTX).

[2] = system: Primary human coronary artery vascular smooth muscle cells; assay: EVs isolated from VSMC cultures: protein immunoblot and TNAP activity; type: cell-based
Description: To assess the role of EGFR inhibition, tyrphostin AG1478 (Millipore Sigma, T4182) was dissolved in vehicle (DMSO:Methanol, 1:1) and added to OS media to a final concentration of 2.5 μM. An equal volume of vehicle was added to the control and OS groups. It shown that 28 days in OS culture media led to robust calcification by VSMCs; therefore, all cultures (n=3, independent donors, male and female) were treated for 28 days and media were replaced every three days. On days 6, 13, 20, and 27 the media were replaced by an extracellular-vesicle-free (EV-free) media (ultracentrifuged for 15 hours at 100,000×g at 4° C. to remove background EVs common in the serum). After 24 hours, conditioned media were collected on days 7, 14, 21, and 28. Collected media were centrifuged at 1,000×g for 5 min to remove cell debris. EV isolation was performed using ultracentrifugation (Beckman Coulter, Optima MAX-TL) at 100,000×g for 1 hour.
For EV TNAP activity measurement, after ultracentrifugation at 100,000×g for 1 hour, the pellets were re-suspended in 120 μL buffer assay. The assessment was performed using the same assay protocol described for intracellular TNAP activity and the results were normalized to the total protein for each sample. For mice serum TNAP activity, the samples were diluted 1:20 and assessment was performed according to the manufacturer's protocol.
VSMCs, osteoblasts, isolated EVs (either from cells or mouse aortas), and matrix vesicles (from osteoblasts) were lysed in RIPA lysis and extraction buffer supplemented with protease inhibitor. After adding Laemmli SDS-sample buffer (1:4 v/v, Boston BioProducts, BP-110R) to each lysate, the samples were denatured at 100° C. for 10 min, loaded into 7.5-12% 1-mm SDS-PAGE gel (15 to 20 μg protein per lane), and run at 170 V. The proteins were then transferred to Trans-Blot turbo nitrocellulose membranes (BIO-RAD, 1704158) at 25 V for 7 min.
To quantify the total protein, the membranes were stained using 2% w/v Ponceau stain (Alfa Aesar, AAJ6074409) for 20 min, followed by one wash with 5% acetic acid and milliQ water for 5 min. After imaging, the intensity of each lane was measured in ImageJ for total protein normalization. Membranes were blocked with 5% w/v bovine serum albumin (HyClone, SH30574.01) in TBS-Tween (1×) for 1 hour. The membranes were incubated with primary antibodies of interest, including CAV1 (1:200, Abcam, ab2910), TNAP (1:200, Invitrogen, 702454), EGFR ([…], EMD Millipore, 06-874), CD63 (1:200, Abeam, ab231975), GAPDH (1:100, Abcam, ab181602), and Annexin V (1:200, proteintech, 11060-1-AP) overnight at 4° C. After three washes with TBS-Tween (1×), the membranes were incubated with secondary antibody (1:1000, Li-Cor) for 1 hour, followed by three washes with TBS-Tween (1×). The protein bands were visualized with Odyssey CLx scanner (Li-Cor), and quantified using Image Studio Lite software (Li-Cor).

## COc1cc2ncnc(Nc3cccc(Cl)c3)c2cc1OC [AG1478, tyrphostin AG1478]
[1]
  in vitro calcification of VSMCs (ARS staining): abrogated
[2]; 28 days of culture, across in vitro groups, p=0.9
  level of CD63 on EVs from VSMCs: preserved
[2]; OS + 2.5 μM, day 28
  level of Annexin V on EVs from VSMCs: reduced levels
  level of EGFR on EVs from VSMCs: reduced levels
[2]; OS + 2.5 μM, days 14, 21, 28
  EV TNAP activity (VSMC cultures): reduced
  release of CAV1-positive EVs by VSMCs: reduced
[2]; pro-calcific media + 2.5 μM, 14 days, vs control and pro-calcific media
  CD63 protein within EVs from vascular SMCs: no differences
